# Data as given in US20040109845A1, “Method for inhibiting articular cartilage matrix calcification” (priority 2001, published 2004).
# Assays:
# Type in all cases: cell-based, human
# [1] = tested on: alkaline phosphatase (AP); assay: AP activity of cultured meniscal cells; settings: 48 h, 10 ng/ml
# Protocol: Meniscal cells (from the same donors used in FIG. 3 above) were released from the matrix with collagenase digestion, and grown in monolayer culture for 72 hrs, then trypsinized and plated in 35 mm dishes (containing 3×10^5 cells) and allowed to adhere overnight. Cells were then treated for 48 h with 10 ng/ml of TGFβ or IL-1β (10 ng/ml) in 1% FCS-containing DMEM high glucose medium. The cells were collected and lysed for the TGase (FIG. 5A), NTPPPH (FIG. 5B), and AP (FIG. 5C) assays as described in the Methods. Five micrograms of soluble protein was studied in triplicate for each assay performed as previously described. Results were analyzed by linear regression, with results indicated.
# PPi was determined by differential adsorption on activated charcoal of UDP-D-[6-^3H] glucose (Amersham, Chicago, Ill.) from the reaction product 6-phospho [6-^3H] gluconate (28). Units of NTPPPH and AP were designated as micromoles of substrate hydrolyzed per hour (per μg DNA in each sample) (28). NO release by cultured meniscal cells was measured using the Greiss reaction (33). Concentrations or specific activities of PPi, NTPPPH, and AP were equalized for cellular DNA concentrations in each well.
# [2] = tested on: TGase activity (tTGase and Factor XIIIa) in meniscal cells; assay: TGase activity in cultured knee meniscal cells (BP incorporation into N,N-dimethylcasein); settings: monolayer culture, 48-72 hrs; IL-1β, TGFβ, TNFα 10 ng/ml; Noc-12 2.5-25 μM; Sin-1 1-10 μM
# Protocol: Meniscal cells were maintained in DMEM high glucose and supplemented with 10% FCS, 1% L-glutamine, 100 units/ml Penicillin and 50 μg/ml Streptomycin (Omega Scientific, Tarzana, Calif.) and cultured at 37° C. with 5% CO2. In monolayer cell culture studies involving stimulation by TGFE[…] or IL-1, the cells were placed in DMEM high glucose containing 1% FCS, 1% L-glutamine, 100 units/ml Penicillin and 50 μg/ml Streptomycin. In all other studies, the cells were cultured in complete medium (as described above). Only primary or first passage meniscal cells were studied.
# (§1) TGase activity was measured by modifications to a previously described method (35). Specifically, we coated 96 well ImmunoModule plates (Nunc, Rochester, N.Y.) with 200 μl of 20 mg/ml N,N-dimethylcasein for 1 hr at 23° C. The N,N-dimethylcasein was removed and nonspecific protein binding was blocked by adding 3% BSA in 100 mM Tris, pH 8.5, 150 mM NaCl, 0.05% Tween-20 (TBST) to each well for an additional 1 hr at 23° C. Then, aliquots of 5 μg of total cellular protein from meniscal or TC28 cells that had been lysed and sonicated (in 5 mM Tris HCl, 0.25 M sucrose, 0.2 mM MgSO4, 2 mM DTT, 0.4 mM PMSF, 0.4% Triton X100, pH 7.5), were added to the plate in triplicate. To measure TGase in extracts of whole menisci, 50 mg dry weight of tissue from the central zone of each medial meniscus was used as the source (after solubilization and sonication) for aliquots of 5 μg of soluble protein. Fifty μl of solution A (100 mM Tris, pH 8.5 and 20 mM CaCl2) was added to all samples for TGase assay, followed by the addition of 50 μl of solution B (100 mM Tris, pH 8.5, 40 mM DTT and freshly added 2 mM 5-(Biotinamido) pentylamine (BP)). The plates were incubated for 1 hr at 37° C. The wells were washed once with TBST containing 1 mM EDTA and then three times with TBST. One hundred μl of a 1:500 dilution of streptavidin-AP in 3% BSA/TBST was added to each well for 1 hr at 23° C. The wells were washed twice with TBST, and 200 μl of solution C (100 mM Tris, pH 9.8, mM NaCl, 5 mM MgCl2, 1 mg/ml of freshly added p-nitrophenylphosphate) was added to each well. Readings at OD410 were taken over 15 minutes. Purified guinea pig liver TGase (Sigma) was used to prepare a standard curve. TGase activity was designated as the amount of BP incorporated into casein (per μg cellular DNA, determined chromogenically following precipitation in perchlorate (28), or, where indicated, per μg protein, determined as previously described (28)).
# To directly induce expression of each TGase in meniscal cells, 5×10^5 primary cells were plated in 60 mm dishes and allowed to adhere overnight. We modified (28) the manufacturer's protocol for the Lipofectamine Plus kit (Life Technologies, Grand Island, N.Y.). To optimize the transfection of meniscal cells, we added 2.0 ml of serum-free DMEM/F12 containing 0.00015% digitonin to washed cells and incubated for 3 min at 23° C. Then, media was removed, and cells transfected at 37° C. for 7 hrs, followed by removal of the media and addition of complete DMEM high glucose medium. Transfection of each TGase into TC28 cells was done by the same procedure, with the exception that the digitonin permeabilization step was omitted.
# [3] = tested on: TGase activity in knee meniscal cells and TC28 cells; assay: TGase activity in nonadherent nodule-forming culture on polyHEME; settings: polyHEME plates, β-glycerophosphate, ascorbate, dexamethasone, up to 10 days; cytokines 10 ng/ml or TGase transfection
# Protocol: FIG. 10 refers to effects of direct Factor XIIIa and tTGase expression on TGase activity in meniscal cells and TC28 cells. Human chondrocytic TC28 cells or normal knee meniscal cells (5×10^5), were plated in 60 mm dishes and allowed to adhere overnight, as described in the Methods. Two μg of plasmid DNAs or empty plasmid vector were then transfected, performed as described above. After 24 hrs, the cells were removed from the dishes and plated on polyHEME-coated tissue culture plates and media supplemented with 10 mM P-glycerophosphate, ascorbatte (50 μg/ml) and dexamethasone (10^−8 M), which stimulated the cells to form mineralizing nodules for 3-10 days in culture. For comparison purposes, cells were treated only with IL-1 or TGFβ (10 ng/ml each) for up to 10 days. At each time point designated, the cell nodules were collected and lysed, and TGase activity then determined as previously described. For meniscal cells, data pooled from 6 donors studied in triplicate. For TC28 cells, n=6 each, studied in triplicate. Statistics not indicated on this graph, but p<0.05 for the increases in TGase activities in response to both Factor XIIIa and tTGase transfection, and for IL-1 treatment, at all time points.
# as §1, with “One hundred μl of a 1:500 dilution of streptavidin-AP in 3% BSA/TBST was added to each well for 1 hr at 23° C. The wells were washed twice with TBST, and 200 μl of solution C (100 mM Tris, pH 9.8, mM NaCl, 5 mM MgCl2, 1 mg/ml of freshly added p-nitrophenylphosphate) was added to each well.” left out, “Purified guinea pig liver TGase (Sigma) was used to prepare a standard curve.” left out, “(28)). […]” for “(28)).”
substance,measurement,setting,value
IL-1β: Human recombinant IL-1β purchased from R&D Systems,AP activity,[1],did not significantly change
same,Induction of TGase activity in cultured normal knee meniscal cells,[2],induced increased TGase activity in a donor age-dependent manner
same,TGase activity under mineralizing nonadherent conditions,[3],induced significant increases in TGase activity
